Laboratory results: patent publication US9598410B2, “Substituted 4,5,6,7-tetrahydro-1H-pyrazolo[4,3-C]pyridines, their use as medicament, and pharmaceutical preparations comprising them” (SANOFI, priority 2011, dated 2017)

Biological target: Human TASK-1 channels (Homo sapiens (Human), UniProt O14649)
Experiment: Activity on the TASK-1 channel in Xenopus oocytes (two-microelectrode voltage clamp)
Assay type: cell-based
Details: percentage inhibition of TASK-1 control current
Procedure: Human TASK-1 channels were expressed in Xenopus oocytes. […] Subsequently, TASK-1-encoding RNA synthesized in vitro was injected into oocytes. […] Oocytes were continuously superfused with ND96 buffer containing: NaCl 96 mM, KCl 2 mM, CaCl2 1.8 mM, MgCl2 1 mM, HEPES 5 mM (pH adjusted to 7.4 with NaOH). All experiments were performed at room temperature.
IC50 values were obtained by fitting the data to the general dose-response equation.

Human TASK-1 channels, sequence (O14649 whole entry): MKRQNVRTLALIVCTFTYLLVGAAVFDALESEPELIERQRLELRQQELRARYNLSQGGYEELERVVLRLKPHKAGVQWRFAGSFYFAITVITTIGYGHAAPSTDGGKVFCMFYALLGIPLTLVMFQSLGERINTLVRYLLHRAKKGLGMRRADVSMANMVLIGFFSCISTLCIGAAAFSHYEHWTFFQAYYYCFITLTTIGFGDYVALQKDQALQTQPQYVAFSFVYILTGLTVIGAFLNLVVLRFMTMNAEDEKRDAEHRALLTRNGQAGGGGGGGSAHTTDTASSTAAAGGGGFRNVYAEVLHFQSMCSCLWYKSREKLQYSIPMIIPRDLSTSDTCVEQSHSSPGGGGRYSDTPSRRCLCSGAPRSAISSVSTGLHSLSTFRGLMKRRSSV

SMILES: COc1ccnc(Cn2nc(-c3cccc(C(F)(F)F)c3)c3c2CCN(C(C)=O)C3)c1 [Example 6q, 1-[1-(4-Methoxy-pyridin-2-ylmethyl)-3-(3-trifluoromethyl-phenyl)-1,4,6,7-tetrahydro-pyrazolo[4,3-c]pyridin-5-yl]-ethanone]
- Inhibition (%) at 5 μM: 70%
